For one data set, the target named is T1, TRKA Protein (wild type) (Homo sapiens, UniProt P04629).
T1 construct: purchased abcam ab60887
Description: Detection of TRK inhibitory activity (ADP-Glo kinase assay), TRKA wild type. The settings on record: 35 min at room temperature. In kind it is biochemical. The method, then: (§1) An enzyme reaction buffer was prepared containing 25 mM MOPS, 5 mM MgCl2, 500 μM DTT and 0.005% Triton, and then adjusted to pH 7.5.
(§2) The test compound was diluted with DMSO to 200 times of the desired final concentration, and mixed evenly, then 3 μL of the solution was pipetted to 117 μL of enzyme reaction buffer and mixed thoroughly. Then, 3 μL of the enzyme reaction buffer containing the test compound was pipetted to a 96-well PCR plate. The positive and negative control wells were filled with 3 μL of enzyme reaction buffer containing 2.5% DMSO, respectively. TRK protein was diluted to 0.4 ng/μL with the enzyme reaction buffer, and 6 μL of diluted TRK protein was added to each well except for the well for the blank control group, in which 6 μL of the enzyme reaction buffer was added. The reaction plate was centrifuged at 1000 rpm/min for 1 minute, and the compound and TRK were pre-incubated at room temperature for 10 minutes. A mixed solution with ATP at a concentration of 160 μM and substrate at a concentration of 1 μM was prepared with the enzyme reaction buffer, and 6 μL of the mixed solution was added to each reaction well. The reaction plate was centrifuged at 1000 rpm/min for 1 minute, and incubated at room temperature for 35 minutes. After the enzyme reaction was completed, 15 μL of ADP-Glo was added to each reaction well. The reaction plate was centrifuged at 1000 rpm/min for 1 minute, and incubated at room temperature for 40 minutes. Then 15 μL of the reaction solution from each well was transferred to a 384-well plate, and then 15 μL of detection substrate was added to each corresponding well of the 384-well plate. The 384-well plate was centrifuged at 1000 rpm/min for 1 minute, and incubated at room temperature for 40 minutes. After the reaction, a microplate reader was used to read the cold luminescence signal value in the 384-well plate.
(§3) The residual viability percentage of each concentration was calculated with the following formula: Residual viability (%)=100*(Lumincompond−Luminblank control)/(Luminpostive control−Luminblank control)
(§4) Then, GraphPad 5.0 was fitted to the effect curve to calculate the IC50 value.

A further data set concerns the target TRKA (G667C) (Homo sapiens, UniProt P04629, G667C). Description: Detection of TRK inhibitory activity (ADP-Glo kinase assay), TRKA (G667C). In kind it is biochemical. The method, then: as §1, §2, §3, §4
Data set [1] concerns Ba/F3 ETV6-NTRK3-G623R cell line. Description: Cell experiment, CellTiter-Glo viability, Ba/F3 ETV6-NTRK3-G623R. In kind it is cell-based. The settings on record: Mus musculus, BaF3, 72 hours, CTG. How it is done:
Cell culture and seeding: (1) cells in logarithmic growth phase were harvested and counted using a […]. The cell viability was detected by trypan blue exclusion method to ensure that the cell viability was above 90%. (2) The cell concentration was adjusted; and 90 μl of cell suspension was added to the 96-well plate.
10 μl of drug solution was added to each well in a 96-well plate inoculated with cells, triplicate per concentration.
End-point for reading: (1) The CTG reagent was thawed and the cell plate was equilibrated to room temperature for 30 minutes. (2) Equal volume of CTG solution was added to each well. (3) The plated was shaken on an orbital shaker for 5 minutes to lyse the cells. (4) The cell plate was placed at room temperature for 20 minutes to stabilize the cold light signal. (5) The cold light value was read.
GraphPad Prism 7.0 software was used to analyze the data, and nonlinear S-curve regression was fitted the data to get the dose-effect curve, and the IC50 value was calculated therefrom. Cell survival (%)=(Lumtest drug−Lumculture control)/(Lumcell control−Lumculture control)×100%.

Read-outs that look alike come from different tables or passages of the source.

Sequence of TRKA (G667C) (P04629 33-796 G667C): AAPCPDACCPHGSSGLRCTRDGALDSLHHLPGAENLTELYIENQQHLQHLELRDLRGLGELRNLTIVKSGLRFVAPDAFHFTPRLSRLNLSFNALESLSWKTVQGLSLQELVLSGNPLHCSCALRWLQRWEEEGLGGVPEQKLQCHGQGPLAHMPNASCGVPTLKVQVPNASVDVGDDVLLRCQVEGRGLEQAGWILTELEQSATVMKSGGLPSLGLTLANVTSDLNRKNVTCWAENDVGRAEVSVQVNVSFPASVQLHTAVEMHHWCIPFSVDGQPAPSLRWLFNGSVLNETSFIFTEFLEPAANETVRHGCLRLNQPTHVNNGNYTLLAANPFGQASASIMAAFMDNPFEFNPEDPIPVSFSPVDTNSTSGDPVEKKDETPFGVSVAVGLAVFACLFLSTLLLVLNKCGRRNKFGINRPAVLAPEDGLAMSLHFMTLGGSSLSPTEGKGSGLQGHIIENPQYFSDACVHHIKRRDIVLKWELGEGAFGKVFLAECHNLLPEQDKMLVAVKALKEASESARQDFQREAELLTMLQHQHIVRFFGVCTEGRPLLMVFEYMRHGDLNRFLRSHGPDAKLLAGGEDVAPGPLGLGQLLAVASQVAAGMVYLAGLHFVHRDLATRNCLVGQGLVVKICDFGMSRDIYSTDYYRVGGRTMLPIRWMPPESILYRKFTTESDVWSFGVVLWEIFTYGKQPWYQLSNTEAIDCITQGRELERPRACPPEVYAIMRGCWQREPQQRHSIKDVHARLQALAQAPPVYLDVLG
T1 sequence (P04629 33-796): as the sequence (P04629 33-796 G667C) above, with C635G counted along it

`CCOC(=O)c1cnc2ccc3nc2c1N[C@H](C)CCOc1ccc(F)cc1[C@H]1CCCN31` gave a ring closure, yield of all isomers (from CCOC(=O)c1cnc2ccc(Cl)nc2c1N[C@H](C)CCOc1ccc(F)cc1[C@H]1CCCN1, cn_pd bond, Pd2(dba)3/SPhos/Cs2CO3, toluene, 64.4 mM, 100.0 °C, 16.0 h) of 54%. The compound `COc1ccc(CN2CC[C@H](C)Oc3ccc(F)cc3[C@H]3CCCN3c3ccc4ncnc2c4n3)c(OC)c1` had a ring closure, yield of all isomers (from COc1ccc(CN(CC[C@@H](C)O)c2ncnc3ccc(N4CCC[C@@H]4c4cc(F)ccc4O)nc23)c(OC)c1, ether bond, DIAD/triphenylphosphine (printed as triphenylphosphine oxide), tetrahydrofuran, 72.0 mM, 25.0 °C, 3.0 h) of 72.3%. `C[C@H]1CCNc2c(C(=O)O)cnc3ccc(nc23)N2CCC[C@@H]2c2cc(F)ccc2O1` gave a ring closure, yield of all isomers (from C[C@@H](CCNc1c(C(=O)O)cnc2ccc(Cl)nc12)Oc1ccc(F)cc1[C@H]1CCCN1, cn_pd bond, Pd2(dba)3/SPhos/Cs2CO3, toluene, 62.5 mM, 100.0 °C, 16.0 h) of 52%.

In the case of `C[C@H]1CCNc2c(C#N)cnc3ccc(nc23)N2CCC[C@@H]2c2cc(F)ccc2O1` [Example 2, (6R,14S)-9-fluoro-14-methyl-3-oxa-2,17,21,25-tetraazapentacyclo [16.6.2.0^2,^6.0^7,^12.0^22,^26]hexacosane-1(25),7,9,11,18(26),19,21,23-octane-19-nitrile], the half-inhibitory concentration (IC50) at TRKA Protein (wild type) and against TRKA (G667C) was < 50 nM each time. In the case of `CN1Cc2cc(F)ccc2OCCCNc2ncnc3ccc1nc23` [Example 3, 6-fluoro-2-methyl-10-oxa-2,14,16,18,22-pentaazatetracyclo [13.6.2.0^4,^9.0^19,^23] tricosane-1(22),4,6,8,15(23),16,18,20-octane], the IC50 at TRKA Protein (wild type) and against TRKA (G667C) was < 50 nM throughout. In the case of `CN1Cc2cc(F)ccc2OCCNc2ncnc3ccc1nc23` [Example 4, 6-fluoro-2-methyl-10-oxa-2,13,15,17,21-pentaazatetracyclo [12.6.2.0^4,9.0^18,^22]docosane-1(21),4,6,8,14(22),15,17,19-octane], the IC50 at TRKA Protein (wild type) is 50 to 500 nM. On to `C[C@@H]1CCOc2ccc(F)cc2CN(C)c2ccc3ncnc(c3n2)N1` [Example 5, (13R)-6-fluoro-2,13-dimethyl-10-oxa-2,14,16,18,22-pentaazatetracyclo[13.6.2.0^4,^9.0^19,^23]tricosane-1(22),4,6,8,15(23),16,18,20-octane], for which the IC50 against TRKA Protein (wild type) and against TRKA (G667C) was < 50 nM in each case. In the case of `C[C@@H]1CCOc2ccc(F)cc2[C@H]2CCCN2c2ccc3ncnc(c3n2)N1` [Example 6, (6R,16R)-9-fluoro-16-methyl-13-oxa-2,17,19,21,25-pentaazapentacyclo[16.6.2.0^2,^6.0^7,^12.0,^26]hexacosane-1(25),7,9,11,18(26),19,21,23-octane], the IC50 in data set [1] was 42.1 nM; at TRKA Protein (wild type), < 50 nM; against TRKA (G667C), < 50 nM. This compound also yielded an IC90 in data set [1] of 94.2 nM. Turning to `C[C@H]1CCNc2ncnc3ccc(nc23)N2CCC[C@@H]2c2cc(F)ccc2O1` [Example 7, (6R,14S)-9-fluoro-14-methyl-13-oxa-2,17,19,21,25-pentaazapentacyclo[16.6.2.0^2,^6.0^7,^12.0^22,^26]hexacosane-1(25),7,9,11,18(26),19,21,23-octane], the half-maximal inhibitory concentration (IC50) in data set [1] was 3.6 nM; against TRKA Protein (wild type) it was < 50 nM; against TRKA (G667C), < 50 nM. For the same compound, it took 8.7 nM to reach the 90% level in data set [1] (IC90). Take `C[C@H]1CCOc2ccc(F)cc2[C@H]2CCCN2c2ccc3ncc(C#N)c(c3n2)N1` [Example 8, (6R,16S)-9-fluoro-16-methyl-3-oxa-2,17,21,25-tetraazapentacyclo [16.6.2.0^2,^6.0^7,^12.0^22,^26]hexacosane-1(25),7,9,11,18(26),19,21,23-octane-19-nitrile]: at TRKA Protein (wild type), the IC50 was < 50 nM. For the compound `CCOC(=O)c1cnc2ccc3nc2c1NCCCOc1ccc(F)cc1[C@H]1CCCN31` [Example 9, ethyl (6R)-9-fluoro-13-oxa-2,17,21,25-tetraazapentacyclo [16.6.2.0^2,^6.0^7,^12.0^22,^26]hexacosane-1(25),7,9,11,18(26),19,21,23-octane-19-carboxylate], the IC50 is < 50 nM against TRKA Protein (wild type) and > 500 nM against TRKA (G667C). `O=C(O)c1cnc2ccc3nc2c1NCCCOc1ccc(F)cc1[C@H]1CCCN31` [Example 10, (6R)-9-fluoro-13-oxa-2,17,21,25-tetraazapentacyclo [16.6.2.0^2,^6.0^7,^12.0^22,^26]hexacosane-1(25),7,9,11,18(26),19,21,23-octane-19-carboxylic acid]: the IC50 against TRKA Protein (wild type) lay in the range of 50 to 500 nM. For `NC(=O)c1cnc2ccc3nc2c1NCCCOc1ccc(F)cc1[C@H]1CCCN31` [Example 11, (6R)-9-fluoro-13-oxa-2,17,21,25-tetraazapentacyclo [16.6.2.0^2,^6.0^7,^12.0^22,^26]hexacosane-1(25),7,9,11,18(26),19,21,23-octane-19-carboxamide], the half-maximal inhibitory concentration (IC50) on TRKA Protein (wild type) and at TRKA (G667C) was < 50 nM each time. Turning to `N#Cc1cnc2ccc3nc2c1NCCCOc1ccc(F)cc1[C@H]1CCCN31` [Example 12, (6R)-9-fluoro-13-oxa-2,17,21,25-tetraazapentacyclo [16.6.2.0^2,^6.0^7,^12.0^22,^26]hexacosane-1(25),7,9,11,18(26),19,21,23-octane-19-nitrile], the IC50 against TRKA Protein (wild type) and on TRKA (G667C) was < 50 nM in each case. On TRKA Protein (wild type), `C[C@H]1CCOc2ccc(F)cc2[C@@H]2CCCN2c2ccc3ncc(C#N)c(c3n2)N1` [Example 13, (6S,16S)-9-fluoro-16-methyl-13-oxa-2,17,21,25-tetraazapentacyclo [16.6.2.0^2,^6.0^7,^12.0^22,^26]hexacosane-1(25),7,9,11,18(26),19,21,23-octane-19-nitrile] gave an IC50 of 50 to 500 nM. On TRKA Protein (wild type), `C[C@@H]1CCOc2ccc(F)cc2[C@@H]2CCCN2c2ccc3ncc(C#N)c(c3n2)N1` [Example 14, (6S,16R)-9-fluoro-16-methyl-3-oxa-2,17,21,25-tetraazapentacyclo [16.6.2.0^2,^6.0^7,^12.0^22,^26]hexacosane-1(25),7,9,11,18(26),19,21,23-octane-19-nitrile] gave an IC50 of 50 to 500 nM. As to `Fc1cnc2c(c1)[C@H]1CCCN1c1ccc3ncnc(c3n1)NCCCC2` [Example 15, (6R)-9-fluoro-2,11,17,19,21,25-hexaazapentacyclo [16.6.2.0^2,^6.0^7,^12.0^22,^26]hexacosane-1(25),7,9,11,18(26),19,21,23-octane], the IC50 at TRKA Protein (wild type) and at TRKA (G667C) was < 50 nM each time.

As to `C[C@@H]1CCCc2ncc(F)cc2[C@H]2CCCN2c2ccc3ncnc(c3n2)N1` [Example 16, (6R,16R)-9-fluoro-16-methyl-2,11,17,19,21,25-hexaazapentacyclo [16.6.2.0^2,^6.0^7,^12.0^22,^26]hexacosane-1(25),7,9,11,18(26),19,21,23-octane], the concentration for half-maximal inhibition (IC50) at TRKA Protein (wild type) and against TRKA (G667C) was < 50 nM in each case. As to `C[C@H]1Nc2ccc3ncnc(c3n2)NCCCOc2ccc(F)cc21` [Example 17, 6-fluoro-3-methyl-10-oxa-2,14,16,18,22-pentaazatetracyclo [13.6.2.0^4,^9.0^19,^23] tricosane-1 (22),4,6,8,15(23),16,18,20-octane], the ring closure, yield of all isomers (from C[C@@H](N)c1cc(F)ccc1OCCCNc1ncnc2ccc(Cl)nc12, cn_pd bond, Pd2(dba)3/SPhos/Cs2CO3, toluene, 12.2 mM, 110.0 °C, 16.0 h) was 5.4%. Moreover, the IC50 at TRKA Protein (wild type) and against TRKA (G667C) was < 50 nM throughout. The compound `C[C@@H]1CCOc2ccc(F)cc2[C@@H](C)Nc2ccc3ncc(F)c(c3n2)N1` [Example 18, (R,R)-6,16-difluoro-3,13-dimethyl-10-oxa-2,14,18,22-tetraazatetracyclo[13.6.2.0^4,^9.0^19,^23]tricosane-1(22),4,6,8,15(23),16,18,20-octane] yielded a ring closure, yield of all isomers (from C[C@H](CCOc1ccc(F)cc1[C@@H](C)N)Nc1c(F)cnc2ccc(Cl)nc12, cn_pd bond, SPhos Pd G3/SPhos/Cs2CO3, toluene, 90.0 mM, 100.0 °C, 16.0 h) of 8.2%. Moreover, the IC50 at TRKA Protein (wild type) and on TRKA (G667C) was < 50 nM throughout.
